Results as given in patent US8501781B2 (priority 2009, dated 2013).
Marks after values point to notes of the source that are not given here.

Experiment: logP by HPLC (EEC Directive 79/831 Annex V.A8)
Assay type: physicochemical
Conditions: for chromatographic logP: pH 2.7, given in the preparation examples, read-out: log P (pH 2.7)
[1] = [b] LC-MS, acidic range, pH 2.7, 0.1% aqueous formic acid and acetonitrile
[2] = [c] LC-MS, neutral range, pH 7.8, 0.001 molar aqueous ammonium bicarbonate and acetonitrile

| Structure (SMILES) | logP [1] | further results |
| --- | --- | --- |
| O=C(OCc1ccccc1Br)c1csc(C2CCN(C(=S)Nc3cc(Cl)ccc3F)CC2)n1 [Example 115] | 4.15 | logP [2]: 4.14 |
| O=C(OCc1ccccc1Br)c1csc(C2CCN(C(=S)Nc3cc(F)ccc3F)CC2)n1 [Example 116] | 3.83 | logP [2]: 3.87 |
| Cc1ccc(F)cc1NC(=S)N1CCC(c2nc(C(=O)OCc3ccccc3Br)cs2)CC1 [Example 117] | 3.98^[c]; 3.98^[b] | logP [2]: 3.98^[c]; 3.98^[b] |
| O=C(OCc1ccccc1Br)c1csc(C2CCN(C(=S)Nc3cc(C(F)(F)F)ccc3F)CC2)n1 [Example 118] | 4.34 | logP [2]: 4.37 |
| Cc1noc(C)c1NC(=S)N1CCC(c2nc(C(=O)OCc3ccccc3Br)cs2)CC1 [Example 119] | 3.2 | logP [2]: 3.21 |
| Cc1ccc(C)c(NC(=O)N2CCC(c3nc(C(=O)OCc4c(F)cccc4Cl)cs3)CC2)c1 [Example 120] | 3.66^[b] |  |
| Cc1ccc(C)c(NC(=O)N2CCC(c3nc(C(=O)OCc4c(F)cccc4F)cs3)CC2)c1 [Example 121] | 3.38^[b] |  |
| Cc1ccc(C)c(NC(=O)N2CCC(c3nc(C(=O)O[C@@H]4CCCC[C@H]4c4ccccc4)cs3)CC2)c1 [Example 122] | 4.43^[b] |  |
| Cc1ccc(C)c(NC(=O)N2CCC(c3nc(C(=O)O[C@H]4CCCC[C@@H]4c4ccccc4)cs3)CC2)c1 [Example 123] | 4.42^[b] |  |
| O=C(OC1CCCc2ccccc21)c1csc(C2CCN(C(=S)Nc3cc(F)ccc3F)CC2)n1 (stereo not shown) [Example 124] | 4.06 | logP [2]: 3.94 |
| Cc1ccc(Cl)cc1NC(=O)N1CCC(c2nc(C(=O)OC3CCCc4ccccc43)cs2)CC1 (stereo not shown) [Example 125] | 4.27 | logP [2]: 4.14 |
| Cc1ccc(C)c(NC(=O)N2CCC(F)(c3nc(C(=O)O[C@@H]4CCCc5ccccc54)cs3)CC2)c1 [Example 126] | 4.30^[b] |  |
| Cc1cc(C(F)(F)F)nn1CC(=O)N1CCC(F)(c2nc(C(=O)O[C@@H]3CCCc4ccccc43)cs2)CC1 [Example 127] | 4.25^[b] |  |
| Cc1ccc(C)c(NC(=O)N2CCC(c3nc(C(=O)OCc4ccccc4Cl)cs3)CC2)c1 [Example 135] | 3.73^[b] |  |
| Cc1ccc(C)c(NC(=O)N2CCC(c3nc(C(=O)OCc4ccccc4I)cs3)CC2)c1 [Example 136] | 3.96^[b] |  |
| Cc1ccc(C)c(NC(=O)N2CCC(c3nc(C(=O)OCc4c(Cl)cccc4Cl)cs3)CC2)c1 [Example 137] | 3.97^[b] |  |
| COc1cccc(F)c1C(C)OC(=O)c1csc(C2CCN(C(=O)Nc3cc(C)ccc3C)CC2)n1 (stereo not shown) [Example 138] | 3.79^[b] |  |
| Cc1ccc(C)c(NC(=O)N2CCC(c3nc(C(=O)OCc4ccncc4Cl)cs3)CC2)c1 [Example 139] | 2.77^[b] |  |
| Cc1ccc(C)c(NC(=O)N2CCC(c3nc(C(=O)OCc4ccccc4F)cs3)CC2)c1 [Example 140] | 3.39^[b] |  |
| Cc1ccc(C)c(NC(=O)N2CCC(c3nc(C(=O)Oc4c(C)cccc4Br)cs3)CC2)c1 [Example 141] | 3.82^[b] |  |

| Structure (SMILES) | logP [1] | further results |
| --- | --- | --- |
| COc1cccc(Br)c1OC(=O)c1csc(C2CCN(C(=O)Nc3cc(C)ccc3C)CC2)n1 [Example 142] | 3.56^[b] |  |
| Cc1ccc(C)c(NC(=O)N2CCC(c3nc(C(=O)Oc4c(C)cccc4Cl)cs3)CC2)c1 [Example 143] | 3.76^[b] |  |
| Cc1ccc(C)c(NC(=O)N2CCC(c3nc(C(=O)Oc4c(Br)cccc4Br)cs3)CC2)c1 [Example 144] | 3.93^[b] |  |
| COc1cccc(F)c1OC(=O)c1csc(C2CCN(C(=O)Nc3cc(C)ccc3C)CC2)n1 [Example 145] | 3.28^[b] |  |
| Cc1ccc(C)c(NC(=O)N2CCC(c3nc(C(=O)Oc4ccccc4Br)cs3)CC2)c1 [Example 146] | 3.58^[b] |  |
| Cc1ccc(C)c(NC(=O)N2CCC(c3nc(C(=O)Oc4ccccc4F)cs3)CC2)c1 [Example 147] | 3.27^[b] |  |
| Cc1ccc(C)c(NC(=O)N2CCC(c3nc(C(=O)Oc4ccccc4Cl)cs3)CC2)c1 [Example 148] | 3.51^[b] |  |
| Cc1ccc(C)c(NC(=O)N2CCC(c3nc(C(=O)Oc4c(F)cccc4Cl)cs3)CC2)c1 [Example 149] | 3.62^[b] |  |
| Cc1ccc(C)c(NC(=O)N2CCC(c3nc(C(=O)Oc4c(F)cccc4F)cs3)CC2)c1 [Example 150] | 3.39^[b] |  |
| Cc1ccc(C)c(NC(=O)N2CCC(c3nc(C(=O)Oc4c(Cl)cccc4Cl)cs3)CC2)c1 [Example 151] | 3.82^[b] |  |
| Cc1ccc(C)c(NC(=O)N2CCC(c3nc(C(=O)Oc4c(F)cccc4Br)cs3)CC2)c1 [Example 152] | 3.86^[b] |  |
| Cc1ccc(C)c(NC(=O)N2CCC(c3nc(C(=O)OC(C)c4ccccc4F)cs3)CC2)c1 (stereo not shown) [Example 153] | 3.71^[b] |  |
| Cc1ccc(C)c(NC(=O)N2CCC(c3nc(C(=O)Oc4ccccc4I)cs3)CC2)c1 [Example 154] | 3.69^[b] |  |
| Cc1ccc(C)c(NC(=O)N2CCC(c3nc(C(=O)OCc4c(F)cccc4Br)cs3)CC2)c1 [Example 155] | 3.79^[b] |  |
| Cc1ccc(C)c(NC(=O)N2CCC(c3nc(C(=O)OC(C)c4c(Cl)cccc4Cl)cs3)CC2)c1 (stereo not shown) [Example 156] | 4.35^[b] |  |
| Cc1ccc(C)c(NC(=O)N2CCC(c3nc(C(=O)OCCc4c(Cl)cccc4Cl)cs3)CC2)c1 [Example 157] | 4.29^[b] |  |
| Cc1ccc(C)c(NC(=S)N2CCC(c3nc(C(=O)OC4CCCCC4c4ccccc4)cs3)CC2)c1 (stereo not shown) [Example 158] | 4.73^[b] |  |
| Cc1ccc(Cl)cc1NC(=S)N1CCC(c2nc(C(=O)OC3CCCCC3c3ccccc3)cs2)CC1 (stereo not shown) [Example 159] | 4.83^[b] |  |
| Cc1ccc(C)c(NC(=O)N2CCC(c3nc(C(=O)OC4CCCCC4c4ccc(F)c(F)c4)cs3)CC2)c1 (stereo not shown) [Example 160] | 4.52^[b] |  |
| Cc1ccc(Cl)cc1NC(=O)N1CCC(c2nc(C(=O)OCc3c(F)cccc3Cl)cs2)CC1 [Example 161] | 3.89^[b] |  |

| Structure (SMILES) | logP [1] | further results |
| --- | --- | --- |
| COc1ccc(C)cc1NC(=O)N1CCC(c2nc(C(=O)OCc3c(F)cccc3Cl)cs2)CC1 [Example 162] | 3.92^[b] |  |
| Cc1ccc(Cl)cc1NC(=O)N1CCC(c2nc(C(=O)OCc3c(F)cccc3F)cs2)CC1 [Example 163] | 3.62^[b] |  |
| COc1ccc(C)cc1NC(=O)N1CCC(c2nc(C(=O)OCc3c(F)cccc3F)cs2)CC1 [Example 164] | 3.66^[b] |  |
| Cc1cc(C(F)(F)F)nn1CC(=O)N1CCC(F)(c2nc(C(=O)OCc3c(F)cccc3F)cs2)CC1 [Example 165] | 3.65 | logP [2]: 3.67 |
| Cc1ccc(Cl)cc1NC(=O)N1CCC(F)(c2nc(C(=O)OCc3c(F)cccc3F)cs2)CC1 [Example 166] | 3.87 | logP [2]: 3.86 |
| Cc1ccc(Cl)cc1NC(=O)N1CCC(F)(c2nc(C(=O)OC3CCCCC3)cs2)CC1 [Example 167] | 4.33 | logP [2]: 4.32 |
| O=C(OCc1c(F)cccc1F)c1csc(C2(F)CCN(C(=O)Cn3nc(C(F)F)cc3C(F)F)CC2)n1 [Example 168] | 3.53 | logP [2]: 3.56 |
| COc1ccc(C)cc1NC(=O)N1CCC(F)(c2nc(C(=O)OC3CCCCC3)cs2)CC1 [Example 169] | 4.4 | logP [2]: 4.42 |
| Cc1cc(C(F)(F)F)nn1CC(=O)N1CCC(F)(c2nc(C(=O)OC3CCCCC3)cs2)CC1 [Example 170] | 4.07 | logP [2]: 4.09 |
| Cc1ccc(C)c(NC(=O)N2CCC(F)(c3nc(C(=O)OCc4c(F)cccc4F)cs3)CC2)c1 [Example 171] | 3.69 | logP [2]: 3.71 |
| Cc1ccc(C)c(NC(=O)N2CCC(F)(c3nc(C(=O)OC4CCCCC4)cs3)CC2)c1 [Example 172] | 4.15^[c]; 4.15^[b] | logP [2]: 4.15^[c]; 4.15^[b] |
| COc1ccc(C)cc1NC(=O)N1CCC(F)(c2nc(C(=O)OCc3c(F)cccc3F)cs2)CC1 [Example 173] | 3.80 | logP [2]: 3.92 |
| COCCOCC(=O)N1CCC(c2nc(C(=O)OC3CCCCC3)cs2)CC1 [Example 174] |  | logP ([a] acidic range, pH 2.3, 0.1% aqueous phosphoric acid and acetonitrile): 2.37^[a] |
| O=C(OCc1c(F)cccc1F)c1cnc(C2CCN(C(=O)Cn3nc(C(F)F)cc3C(F)F)CC2)s1 [Example 175] | 3.45^[b] |  |
| O=C(Oc1c(F)cccc1Cl)c1cnc(C2CCN(C(=O)Cn3nc(C(F)F)cc3C(F)F)CC2)s1 [Example 176] | 3.67^[b] |  |
| Cc1cccc(COC(=O)c2cnc(C3CCN(C(=O)Cn4nc(C(F)F)cc4C(F)F)CC3)s2)c1C [Example 177] | 4.00^[b] |  |
| O=C(OC1CCCCC1)c1cnc(C2CCN(C(=O)Cn3nc(C(F)F)cc3C(F)F)CC2)s1 [Example 178] | 3.97^[b] |  |
| O=C(OC1CCCCC1)c1csc(C2CCNCC2)n1 [VII-1, 4-{4-[(Cyclohexyloxy)carbonyl]-1,3-thiazol-2-yl}piperidinium chloride] |  | chromatographic logP: 1.25 |
| CC(C)(C)OC(=O)N1CCC(c2nc(C(=O)O)cs2)CC1 [XXXI-1, 2-[1-(tert-Butoxycarbonyl)piperidin-4-yl]-1,3-thiazole-4-carboxylic acid] |  | chromatographic logP: 2.04 |
| CC(C)(C)OC(=O)N1CCC(c2nc(C(=O)OC3CCCCC3)cs2)CC1 [XXXIII-1, tert-Butyl 4-{4-[(cyclohexyloxy)carbonyl]-1,3-thiazol-2-yl}piperidine-1-carboxylate] |  | chromatographic logP: 4.62 |
